The results in this text go back to patent US8268809B2, “Kinase inhibitors for preventing or treating pathogen infection and method of use thereof” (priority 2006, dated 2012).

Entries after “also recorded” stand apart in the source; their conditions may differ.
Throughout, for VACCINIA PLAQUE ASSAY 2: test concentration or dose not given here.

The test system of this assay is vaccinia virus. It counts as cell-based.
Turning to `O=C(Nc1cccc(-c2ccc3nncn3n2)c1)c1cccc([N+](=O)[O-])c1` [YYB31], the “Class category of infected monolayers in plaque assay” value (“Class category of infected monolayers” for short) was “Class III”, the “VACCINIA PLAQUE ASSAY 2” value is given as “PINPOINTS” and the “VACCINIA Plaque Assay” value is given as “FEW COMETS”.
As to `CCOC(=O)c1ccc(-c2n[nH]c3nc(-c4ccc5cc[nH]c5c4)ccc23)cc1` [APcK-58], the “VACCINIA PLAQUE ASSAY 2” value is listed as “NO PLAQUES”.
Regarding `COc1ccc(OC)c(S(=O)(=O)Nc2cccc(-c3ccc4nnc(-c5cccs5)n4n3)c2)c1` [YYB44], the “Class category of infected monolayers” value is reported as “Class II”, the “VACCINIA PLAQUE ASSAY 2” value is given as “SMALL PLAQUES” and the “VACCINIA Plaque Assay” value is “MEDIUM PLAQUES”.
Turning to `COc1ccc(Nc2nccn3c(-c4cccc(C(N)=O)c4)cnc23)cc1` [LG2-13], the “Class category of infected monolayers” value is recorded as “Class III”, the “VACCINIA PLAQUE ASSAY 2” value was “SLIGHTLY SMALLER PLAQUES” and the “VACCINIA Plaque Assay” value was “PINPOINT PLAQUES”.
For the compound `O=C(c1ccccc1)c1ccc(-c2ccc3c(-c4ccc(Br)c(F)c4)n[nH]c3n2)cc1` [APcK-38], the “VACCINIA PLAQUE ASSAY 2” value is on record as “NO PLAQUES”.
As for `COc1cc(C(=O)Nc2cccc(-c3ccc4nnc(-c5ccccc5)n4n3)c2)cc(OC)c1OC` [YYB21], the “Plaque phenotype due to drug treatment (FIGS. 1, 2, 4)” value (“Plaque phenotype due” for short) is reported as “damaged monolayer”.
Consider `CC(=O)Nc1ccc(-c2ccc3c(-c4ccc(Br)cc4)n[nH]c3n2)cc1` [APcK-27], for which the “Class category of infected monolayers” value is on record as “Class III”; the “Plaque phenotype due” value is recorded as “pinpoint plaque formations; also recorded: pinpoint plaques”; the “VACCINIA PLAQUE ASSAY 2” value is reported as “SMALL PLAQUES”; the “VACCINIA Plaque Assay” value was “PINPOINT PLAQUES”.
`COc1ccccc1Nc1cc(-c2ccc3[nH]ccc3c2)ncn1` [Eph2_wbz 216]: the “Class category of infected monolayers” value is “Class III”, the “VACCINIA PLAQUE ASSAY 2” value is reported as “NO PLAQUES” and the “VACCINIA Plaque Assay” value is “SLIGHTLY SMALLER PLAQUES”.
As to `COc1cc(OC)cc(-c2ccc3c(-c4ccc(F)cc4)n[nH]c3n2)c1` [APcK-110], the “Class category of infected monolayers” value is given as “Class II”; the “VACCINIA PLAQUE ASSAY 2” value is “SMALL PLAQUES”; the “VACCINIA Plaque Assay” value was “SMALL PLAQUES, SEE LOTS OF SATELLITE PLAQUES”.
The corresponding values for `Cc1ccc(-c2ccnc(Nc3cc(NC(=O)c4ccc(CN5CCN(C)CC5)cc4)ccc3C)n2)cn1` [WBZ-4] are “Class II”, “SMALL PLAQUES” and “SMALL PLAQUES”.
For `CN1CCOc2cc(/C=C3\SC(=O)NC3=O)ccc21` [AS-605091, reference compound], in that order: “Class III”, “PINPOINT PLAQUES” and “SMALL PLAQUES”.
For `COc1cc(OC)cc(-c2ccc3c(-c4ccc(Cl)c(F)c4)n[nH]c3n2)c1` [APcK-111], the “Class category of infected monolayers” value is “Class III”; the “Plaque phenotype due” value is listed as “pinpoint plaque formations; also recorded: pinpoint plaques”; the “VACCINIA PLAQUE ASSAY 2” value is reported as “PINPOINT PLAQUES”; the “VACCINIA Plaque Assay” value is listed as “PINPOINT PLAQUES”.
Turning to `Cc1ccc(-n2c(=O)[nH]c3c(C(N)=O)nc(-c4ccc([N+](=O)[O-])cc4[N+](=O)[O-])nc32)cc1` [dm-I-180], the “VACCINIA Plaque Assay” value was “LARGE TAILS”.
In the case of `COc1cccc(-c2cnc3c(Nc4ccccc4)nccn23)c1` [LG2-85], the “Class category of infected monolayers” value is given as “Class III”, the “VACCINIA PLAQUE ASSAY 2” value was “NO PLAQUES” and the “VACCINIA Plaque Assay” value is “PINPOINT PLAQUES”.
As for `COc1ccccc1Nc1cc(-c2ccc(NC(=O)CCC(=O)O)cc2)ncn1` [Eph2_wbz 217], the “VACCINIA Plaque Assay” value was “SLIGHTLY SMALLER PLAQUES”.
Take `O=C(c1ccccc1)c1ccc(-c2ccc3c(-c4ccc(Br)cc4F)n[nH]c3n2)cc1` [APcK-39]: the “VACCINIA PLAQUE ASSAY 2” value is “NO PLAQUES”.
